Reference: the supplement of paper PMC4862054

tested on: BT-474; experiment: normalised response (% of control), CellTiter-Glo; higher = more viable cells (100 = DMSO, 0 = benzethonium chloride kill control); conditions: incubation time: 72 h
Outline: (§1)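 Each value is the plate-normalised signal at one concentration of the series. Breast cancer cell lines (20 µl suspension) were incubated 72 h in 384-well plates with compound at 5 concentrations in 10-fold steps over a compound-specific 10,000-fold range. CellTox Green and then CellTiter-Glo were read, and each plate was scaled to 0.1 % DMSO (100) and a positive kill control (0).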

First: C=CCc1cccc(/C=N/NC(=O)CN2CCN(Cc3ccccc3)CC2)c1O [PAC-1] (1000 nM)
Second: Nc1nc2[nH]cc(CCc3ccc(C(=O)N[C@@H](CCC(=O)O)C(=O)O)cc3)c2c(=O)[nH]1 [Pemetrexed] (1000 nM)
The normalised response of the first is higher: 97.9% for the first, 54.4% for the second.

Going from `Oc1ncc(N(CCCl)CCCl)c(O)n1` [Uracil mustard] (1000 nM) to `Cc1cnc(NC(=O)Nc2cc(Br)c(C)cc2OC[C@@H]2CNCCO2)cn1` [Rabusertib] (100 nM), the normalised response falls from 104% to 103%.

Compared with `O=C(O)C(=O)O.[NH-][C@@H]1CCCC[C@H]1[NH-].[Pt+2]` [Oxaliplatin] (1000 nM), `O=C(O)C1(C(=O)O)CCC1.[NH2-].[NH2-].[Pt+2]` [Carboplatin] (1000 nM) is higher in normalised response: 97.7% for the first, 100% for the second.

Compared with `CC[C@H](C)C(=O)O[C@H]1C[C@H](O)C=C2C=C[C@H](C)[C@H](CC[C@@H](O)C[C@@H](O)CC(=O)O)[C@H]21` [Pravastatin] (1000 nM), `COc1cc2nccc(Oc3ccc(NC(=O)Nc4cc(C)on4)c(Cl)c3)c2cc1OC` [Tivozanib] (1000 nM) is lower in normalised response: 85.8% for the first, 81.3% for the second.

tested on: CAL-51; experiment: as above; conditions: incubation time: 72 h
Outline: as §1

Compared with `O=C(Cc1ccc(-c2ccc(OCCN3CCOCC3)cc2)cn1)NCc1ccccc1` [KX2-391] (1000 nM), `C=CCc1cccc(/C=N/NC(=O)CN2CCN(Cc3ccccc3)CC2)c1O` [PAC-1] (1000 nM) is higher in normalised response: 19.3% for the first, 67.2% for the second.

First: Oc1ncc(N(CCCl)CCCl)c(O)n1 [Uracil mustard] (1000 nM)
Second: Nc1nc2[nH]cc(CCc3ccc(C(=O)N[C@@H](CCC(=O)O)C(=O)O)cc3)c2c(=O)[nH]1 [Pemetrexed] (1000 nM)
The normalised response of the first is higher: 113% for the first, 90.6% for the second.

Compared with `O=C(O)C(=O)O.[NH-][C@@H]1CCCC[C@H]1[NH-].[Pt+2]` [Oxaliplatin] (1000 nM), `O=C(O)C1(C(=O)O)CCC1.[NH2-].[NH2-].[Pt+2]` [Carboplatin] (1000 nM) is lower in normalised response: 128% for the first, 108% for the second.

Compared with `CC[C@H](C)C(=O)O[C@H]1C[C@H](O)C=C2C=C[C@H](C)[C@H](CC[C@@H](O)C[C@@H](O)CC(=O)O)[C@H]21` [Pravastatin] (1000 nM), `Cc1cnc(NC(=O)Nc2cc(Br)c(C)cc2OC[C@@H]2CNCCO2)cn1` [Rabusertib] (100 nM) is higher in normalised response: 54.5% for the first, 72.5% for the second.

`COc1cc2nccc(Oc3ccc(NC(=O)Nc4cc(C)on4)c(Cl)c3)c2cc1OC` [Tivozanib] (1000 nM) showed a normalised response of 90.8%.

tested on: BT-549; experiment: as above; conditions: incubation time: 72 h
Outline: as §1

First: O=C(Cc1ccc(-c2ccc(OCCN3CCOCC3)cc2)cn1)NCc1ccccc1 [KX2-391] (1000 nM)
Second: C=CCc1cccc(/C=N/NC(=O)CN2CCN(Cc3ccccc3)CC2)c1O [PAC-1] (1000 nM)
The normalised response of the first is lower: 43.6% for the first, 75.1% for the second.

Going from `Oc1ncc(N(CCCl)CCCl)c(O)n1` [Uracil mustard] (1000 nM) to `Nc1nc2[nH]cc(CCc3ccc(C(=O)N[C@@H](CCC(=O)O)C(=O)O)cc3)c2c(=O)[nH]1` [Pemetrexed] (1000 nM), the normalised response falls from 100% to 97.1%.

Compared with `O=C(O)C(=O)O.[NH-][C@@H]1CCCC[C@H]1[NH-].[Pt+2]` [Oxaliplatin] (1000 nM), `O=C(O)C1(C(=O)O)CCC1.[NH2-].[NH2-].[Pt+2]` [Carboplatin] (1000 nM) is lower in normalised response: 105% for the first, 94.2% for the second.

Going from `CC[C@H](C)C(=O)O[C@H]1C[C@H](O)C=C2C=C[C@H](C)[C@H](CC[C@@H](O)C[C@@H](O)CC(=O)O)[C@H]21` [Pravastatin] (1000 nM) to `Cc1cnc(NC(=O)Nc2cc(Br)c(C)cc2OC[C@@H]2CNCCO2)cn1` [Rabusertib] (100 nM), the normalised response rises from 96.3% to 104%.

In the case of `COc1cc2nccc(Oc3ccc(NC(=O)Nc4cc(C)on4)c(Cl)c3)c2cc1OC` [Tivozanib] (1000 nM), the normalised response is reported as 111%.

tested on: MDA-MB-453; experiment: as above; conditions: incubation time: 72 h
Outline: as §1

Going from `O=C(Cc1ccc(-c2ccc(OCCN3CCOCC3)cc2)cn1)NCc1ccccc1` [KX2-391] (1000 nM) to `C=CCc1cccc(/C=N/NC(=O)CN2CCN(Cc3ccccc3)CC2)c1O` [PAC-1] (1000 nM), the normalised response rises from 72% to 93.6%.

First: Oc1ncc(N(CCCl)CCCl)c(O)n1 [Uracil mustard] (1000 nM)
Second: Nc1nc2[nH]cc(CCc3ccc(C(=O)N[C@@H](CCC(=O)O)C(=O)O)cc3)c2c(=O)[nH]1 [Pemetrexed] (1000 nM)
The normalised response of the first is higher: 104% for the first, 92.2% for the second.

Going from `O=C(O)C(=O)O.[NH-][C@@H]1CCCC[C@H]1[NH-].[Pt+2]` [Oxaliplatin] (1000 nM) to `O=C(O)C1(C(=O)O)CCC1.[NH2-].[NH2-].[Pt+2]` [Carboplatin] (1000 nM), the normalised response rises from 89.2% to 97.6%.

Going from `CC[C@H](C)C(=O)O[C@H]1C[C@H](O)C=C2C=C[C@H](C)[C@H](CC[C@@H](O)C[C@@H](O)CC(=O)O)[C@H]21` [Pravastatin] (1000 nM) to `Cc1cnc(NC(=O)Nc2cc(Br)c(C)cc2OC[C@@H]2CNCCO2)cn1` [Rabusertib] (100 nM), the normalised response rises from 87.7% to 88.1%.

`COc1cc2nccc(Oc3ccc(NC(=O)Nc4cc(C)on4)c(Cl)c3)c2cc1OC` [Tivozanib] (1000 nM) was tested, and the normalised response was 87.7%.

tested on: HCC1599; experiment: as above; conditions: incubation time: 72 h
Outline: as §1

Compared with `O=C(Cc1ccc(-c2ccc(OCCN3CCOCC3)cc2)cn1)NCc1ccccc1` [KX2-391] (1000 nM), `C=CCc1cccc(/C=N/NC(=O)CN2CCN(Cc3ccccc3)CC2)c1O` [PAC-1] (1000 nM) is higher in normalised response: 14.8% for the first, 120% for the second.

Compared with `Oc1ncc(N(CCCl)CCCl)c(O)n1` [Uracil mustard] (1000 nM), `Nc1nc2[nH]cc(CCc3ccc(C(=O)N[C@@H](CCC(=O)O)C(=O)O)cc3)c2c(=O)[nH]1` [Pemetrexed] (1000 nM) is lower in normalised response: 108% for the first, 67.4% for the second.

Compared with `O=C(O)C(=O)O.[NH-][C@@H]1CCCC[C@H]1[NH-].[Pt+2]` [Oxaliplatin] (1000 nM), `O=C(O)C1(C(=O)O)CCC1.[NH2-].[NH2-].[Pt+2]` [Carboplatin] (1000 nM) is lower in normalised response: 100% for the first, 96.4% for the second.
